Measurements from publication PMC6900016, “Synthesis of Indomorphan Pseudo‐Natural Product Inhibitors of Glucose Transporters GLUT‐1 and ‐3” (Angewandte Chemie (International Ed. in English), 2019).

Key:
Experiment in all cases: cells
Parameters in all cases: Cell growth inhibition, sulforhodamine B total protein staining
MDAMB435 = details: Homo sapiens, MDA-MB-435; 72 h growth; read-out: Cell growth inhibition IC50/µM
Protocol: (§1) Cell panel profiling A panel of 94 cell lines was exposed to Glupin for 72 h to assess the influence on cell growth (Oncolead, Germany). Cell growth was determined using sulforhodamine B assay. Measurements were performed using a total protein staining protocol. Briefly, after treatement cells were fixed addition of 10% TCA (for adherent growing cells) or 50% TCA (for semi-adherent growing cells or cells growing in suspension). After an incubation at 4°C for 1 h, plates were washed twice with 400 μl of deionized water and dried. Cells were then stained with 100 μl of 0.04% wt/v sulforhodamine B. Plates were incubated at room temperature for at least 30 min and washed six times with 1% acetic acid to remove unbound stain. […] This effect was much stronger at a physiological glucose concentration (5 mM; Figure 5 b,c). […] IC50 values lower than 300 nM were obtained for more than 20 cell lines, whereas 24 cell lines were not affected by the compound, among them the peripheral blood mononuclear control cells (PBMCs). Sensitivity to Glupin was detected across various tissue types (Table S6).

SKLMS1 = details: Homo sapiens, SK-LMS-1; 72 h growth; read-out: Cell growth inhibition IC50/µM
Protocol: as §1

A204 = details: Homo sapiens, A204; 72 h growth; read-out: Cell growth inhibition IC50/µM
Protocol: as §1

KASUMI1 = details: Homo sapiens, Kasumi 1; 72 h growth; read-out: Cell growth inhibition IC50/µM
Protocol: as §1

UMUC3 = details: Homo sapiens, UMUC3; 72 h growth; read-out: Cell growth inhibition IC50/µM
Protocol: as §1

LOVO = details: Homo sapiens, LoVo; 72 h growth; read-out: Cell growth inhibition IC50/µM
Protocol: as §1

A549 = details: Homo sapiens, A549; 72 h growth; read-out: Cell growth inhibition IC50/µM
Protocol: as §1

MDAMB231 = details: Homo sapiens, MDA-MB-231; 72 h growth; read-out: Cell growth inhibition IC50/µM
Protocol: as §1

A673 = details: Homo sapiens, A673; 72 h growth; read-out: Cell growth inhibition IC50/µM
Protocol: as §1

NCIH358M = details: NCI-H358M; 72 h growth; read-out: Cell growth inhibition IC50/µM
Protocol: as §1

TE671 = details: Homo sapiens, TE-671; 72 h growth; read-out: Cell growth inhibition IC50/µM
Protocol: as §1

HT1080 = details: Homo sapiens, HT-1080; 72 h growth; read-out: Cell growth inhibition IC50/µM
Protocol: as §1

SKNAS = details: Homo sapiens, SK-N-AS; 72 h growth; read-out: Cell growth inhibition IC50/µM
Protocol: as §1

COLO205 = details: Homo sapiens, COLO 205; 72 h growth; read-out: Cell growth inhibition IC50/µM
Protocol: as §1

OVCAR3 = details: Homo sapiens, OVCAR-3; 72 h growth; read-out: Cell growth inhibition IC50/µM
Protocol: as §1

HELA = details: Homo sapiens, HeLa; 72 h growth; read-out: Cell growth inhibition IC50/µM
Protocol: as §1

MHHES1 = details: Homo sapiens, MHH-ES-1; 72 h growth; read-out: Cell growth inhibition IC50/µM
Protocol: as §1

RAMOS = details: Homo sapiens, Ramos; 72 h growth; read-out: Cell growth inhibition IC50/µM
Protocol: as §1

HCT116 = details: Homo sapiens, HCT-116; 72 h growth; read-out: Cell growth inhibition IC50/µM
Protocol: as §1

U2OS = details: Homo sapiens, U2OS; 72 h growth; read-out: Cell growth inhibition IC50/µM
Protocol: as §1

PANC1 = details: Homo sapiens, PANC-1; 72 h growth; read-out: Cell growth inhibition IC50/µM
Protocol: as §1

MV411 = details: Homo sapiens, MV4-11; 72 h growth; read-out: Cell growth inhibition IC50/µM
Protocol: as §1

SKBR3 = details: Homo sapiens, SK-BR-3; 72 h growth; read-out: Cell growth inhibition IC50/µM
Protocol: as §1

**Q.** For `CCOC(=O)Cn1c2c(c3ccccc31)C[C@@H]1C[C@H]2C(OC)CN1C(=O)c1cccnc1SC` (single isomer, unassigned; (+)) [(+)-5a, Glupin], which IC50 (MDAMB435) is on record?
**A.** 0.513 µM

**Q.** And the IC50 (SKLMS1)?
**A.** 0.699 µM

**Q.** What about the IC50 (A204) of the same compound?
**A.** 0.562 µM

**Q.** What about the IC50 (KASUMI1) of the same compound?
**A.** > 30 µM

**Q.** What about the IC50 (UMUC3) of the same compound?
**A.** 0.032 µM

**Q.** And the IC50 (LOVO)?
**A.** 5.41 µM

**Q.** And the IC50 (A549)?
**A.** 0.32 µM

**Q.** What about the IC50 (MDAMB231) of the same compound?
**A.** 8.38 µM

**Q.** And the IC50 (A673)?
**A.** 3.64 µM

**Q.** What about the IC50 (NCIH358M) of the same compound?
**A.** > 30 µM

**Q.** What about the IC50 (TE671) of the same compound?
**A.** 0.299 µM

**Q.** What about the IC50 (HT1080) of the same compound?
**A.** 0.118 µM

**Q.** What about the IC50 (SKNAS) of the same compound?
**A.** 0.175 µM

**Q.** And the IC50 (COLO205)?
**A.** 3.73 µM

**Q.** What about the IC50 (OVCAR3) of the same compound?
**A.** > 30 µM

**Q.** And the IC50 (HELA)?
**A.** 1.25 µM

**Q.** What about the IC50 (MHHES1) of the same compound?
**A.** 1.49 µM

**Q.** What about the IC50 (RAMOS) of the same compound?
**A.** 0.212 µM

**Q.** And the IC50 (HCT116)?
**A.** 1.47 µM

**Q.** What about the IC50 (U2OS) of the same compound?
**A.** 0.502 µM

**Q.** And the IC50 (PANC1)?
**A.** 0.706 µM

**Q.** What about the IC50 (MV411) of the same compound?
**A.** > 30 µM

**Q.** What about the IC50 (SKBR3) of the same compound?
**A.** > 30 µM
